Experimental data reported in US6875748B2, “Compositions and methods for in vivo delivery of polynucleotide-based therapeutics” (Vical Incorporated, priority 2000, dated 2005).
Values joined by “and” are separate entries in the source; they are usually repeats but may differ in a detail not shown here. Equal entries are not always repeated. Where two headings read alike, the source gives them in different places.

Key:
mouse quadriceps muscle [1] = assay: Hematocrit after i.m. injection of mouse erythropoietin plasmid (VR2901, VR2996); assay type: in vivo
Description: Hematocrits were measured by centrifugation of blood obtained from the retro-orbital cavity of mice. Blood samples were collected in 75 μl heparinized capillary tubes and analyzed using HemaSTAT II microhematocrit centrifuge (Separation Technology, Inc., Altamonte Springs, Fla.).
The mice were monitored over time for serum hematocrit levels, which correlate with the expression of erythropoeitin.
The mice were monitored over four weeks for serum hematocrit levels, which correlate with the expression of erythropoeitin.
The mice were monitored at days 0, 7, 14, 21, and 28 for serum hematocrit levels, which correlate with the expression of erythropoeitin.
The mice were monitored at days 7, 14, and 28 for serum hematocrit levels, which correlate with the expression of erythropoeitin. Control serum levels were measured before any injections.

mouse quadriceps muscle [2] = assay: Luciferase expression in mouse quadriceps muscle after i.m. injection of plasmid VR1255 with auxiliary agents; conditions: day 7; for increase of luciferase expression in 154 mM sodium chloride: 0.01% agent in saline versus saline alone
[3] = system: tibialis anterior muscles of nude mice; assay: Serum SEAP after injection of plasmid VR3301 into tibialis anterior muscles of nude mice; assay type: in vivo, mouse
Description: Briefly, tissues were rapidly collected and frozen, they were combined with and frozen into a lysis buffer, the tissue was then pulverized with a drill bit run in reverse direction, the resulting powder was thawed, and was extracted two times with extraction buffer. Nude mice were injected with VR3301 DNA bilaterally on three consecutive days for a total of 300 μg DNA per mouse.
Sera from nude mice injected with VR3301 were collected at various times post-injection. […] Samples were assayed in duplicate. Plates were sealed, incubated at 65° C. for 30 min and spun for 5 min at 4000 rpm at room temperature. […] The samples were analyzed using a Molecular Devices Opti Max plate reader (Sunnyvale, Calif.). The plate reader was pre-warmed to 37° C. and a standard kinetic program was used to assay the samples at a wavelength of 405 nm for 30 min.
The mice were monitored over time for blood levels of SEAP or proinsulin or for hematocrits. In the case of SEAP, plasmid DNA was injected into the tibialis anterior muscles, and nude mice were used to prevent an immune response to the foreign transgene product.
The mice were monitored for blood levels of SEAP at day 7 post-injection. Plasmid DNA was injected into the tibialis anterior muscles, and nude mice were used to prevent an immune response to the foreign transgene product.

rectus femoris muscle = conditions: for cats with elevated hematocrit: no agent
Excerpt: Two milliliters of DNA were delivered as 1-ml injections into each rectus femoris muscle. Following injection, cats were monitored at 7 day intervals for serum hematocrit levels, which correlate with the expression of erythropoeitin.

mouse quadriceps muscle [4] = assay: Luciferase expression in mouse quadriceps muscle 7 days after i.m. injection of plasmid VR1223 in salt solutions; assay type: in vivo; parameters: lux: unit: ng/muscle; conditions: for ng luciferase per muscle / ng Lux/Muscle: 50 μg VR1223 in 50 μl; for ng luciferase per muscle / ng Lux/Muscle / luciferase in muscle / Fold Saline / ng Lux per Muscle: day 7; for luciferase in muscle: Example 4, run in parallel; for lux: 7-day luciferase expression, VR1223; for luciferase expression, fold over saline: VR1223, day 7; for ng luciferase/muscle: average of all 9 experiments; for ng lux/muscle: reproducibility; for ng Lux per Muscle: 50 μg VR1223 in 50 μl of the solution
pH of the salt solutions = assay type: physicochemical
[5] = Osmolarity of the salt solutions; assay type: physicochemical; conditions: for Osm: 150 mM unless otherwise indicated
mouse quadriceps muscle [6] = assay: Serum human IFN-ω after i.m. injection of plasmid VR4151; assay type: in vivo; conditions: for serum IFN-ω levels: 50 μg VR4151, day 7
Description: (§1) Muscle extracts were assayed for β-galactosidase and the serum was assayed for circulating levels of IFN-ω.

mouse quadriceps muscle [7] = assay: β-galactosidase-stained muscle fibers after i.m. injection of plasmid VR1412; assay type: in vivo; conditions: 50 μg VR1412, day 7, n=10
Description: For whole muscle staining, quadriceps were fixed for 3 hours at room temperature in 2% paraformaldehyde in PBS, washed 3 times for 20 min each in PBS and incubated for 18 hours at 37° C. in a solution containing 2 mM MgCl2, 5 mM potassium ferricferrocyanide and 1 mg/ml 5-bromo-4-chloro-3-indoyl-β-D-galactosidase (available from Life Technologies, Inc. (LTI), Gaithersberg, Md.) in PBS. After incubation, the muscles were washed 3 times for 10 min each in 3% dimethyl sulfoxide in PBS and stored in PBS at 4° C. until analysis. […] Sections were collected on 1% gelatin coated glass slides, brought to room temperature and stained for 2 hours at 37° C. in the same reagent as for whole mounts above except that the beta-galactosidase reagent concentration was 200 μg/ml. The sections were then counterstained with Harris hematoxylin in acetic acid, rinsed in tap water, dehydrated and mounted in Permount (Fisher, Fair Lawn, N.J.).
Individual muscle cells were examined for β-galactosidase expression as follows.
Whole quadriceps muscle groups were harvested on day 7. Muscles were snap frozen in OTC medium (n=10 muscles for each group). 10 micron cross-sections were stained with x-gal (substrate for β-gal). Fibers expressing β-gal (stained blue) were counted.

mouse lung = assay: Luciferase expression in mouse lung 3 days after intranasal instillation of VR1223 complexed with GAP-DLRIE/DOPE; assay type: in vivo; conditions: day 3; for luciferase expression in lung: 132 μg VR1223 + GAP-DLRIE/DOPE
B16F10 tumor cells = assay: Anti-tumor effect of i.m. mIFN-α plasmid VR4111 in mice bearing subcutaneous B16F10 tumors; assay type: in vivo, mouse; conditions: for tumor volume: 27 days, VR4111; for survival versus blank DNA in saline: p<0.007, Kaplan-Meier
influenza nucleoprotein [8] = conditions: 5 μg VR4700 days 0 and 21, 6 weeks
influenza nucleoprotein [9] = conditions: 9 weeks post-vaccination, versus saline
mouse quadriceps muscle [10] = assay: β-galactosidase expression in mouse quadriceps muscle after i.m. injection of plasmid VR1418; conditions: for β-galactosidase in muscle: 10 μg VR1418, day 7
Description: The luciferase content of the samples was calculated from Relative Light Units using a standard curve of purified firefly luciferase (Analytical Luminescence Laboratory, San Diego, Calif.; Cat. No. 2400), which was diluted in pooled extract from uninjected muscles to control for quenching. Luciferase values were expressed as ng luciferase per muscle. […] A standard curve, prepared in pooled extract from uninjected muscles, was included on each plate using the β-galactosidase enzyme standard included in the kit.
as §1
Quadriceps muscles were injected with 50 μl of each solution containing 10 μg of plasmid VR1418, and the muscles were tested for 7-day expression levels.

[11] = listed as 50 mM sodium phosphate
[12] = listed as 100 mM sodium phosphate
[13] = listed as 150 mM sodium phosphate
[14] = salts at 150 mM, relative to saline
[15] = 150 mM unless otherwise indicated

## octylphenoxypolyethoxyethanol [NONIDET NP-40]
Mouse quadriceps muscle [1]; 5 μg VR2901, 0.01% agent, all time points
  hematocrit versus 150 mM sodium phosphate alone: higher hematocrit levels
Mouse quadriceps muscle [1]; 5 μg VR2901, after day 14
  rise in hematocrit: 10%
Mouse quadriceps muscle [2]
  increase of luciferase expression in 154 mM sodium chloride: three-fold

## octyl phenol ethylene oxide condensate with about 9-10 ethylene oxide units [Triton X-100]
[3]; day 7
  SEAP expression with 100 μg DNA plus agent versus 300 μg DNA in 150 mM sodium phosphate alone: nearly equivalent
  SEAP expression, fold compared with sodium phosphate alone: 1.7 fold
[3]; day 35
  SEAP expression, fold compared with 150 mM sodium phosphate alone: 2 fold
β-galactosidase; 10 μg VR1412, four weeks
  mice with anti-β-galactosidase antibody: three of the five
β-galactosidase; 10 μg VR1412, ten weeks
  mice with anti-β-galactosidase antibody: four of the five
Rectus femoris muscle; group 4
  period of elevated hematocrit: > 40 days
Mouse quadriceps muscle [2]
  increase of luciferase expression in 154 mM sodium chloride: six-fold

## O=P(O)(O)O [Sodium Phosphate]
Mouse quadriceps muscle [4]
  ng luciferase per muscle: 386 ng luciferase per muscle
  luciferase in muscle: 769 ng/muscle
  ng luciferase/muscle: 490 ng luciferase/muscle
Mouse quadriceps muscle [4]; salts at 150 mM
  ng Lux/Muscle: 481 ng/Muscle
Mouse quadriceps muscle [4]; 80 mM, 100 mM, 150 mM and 200 mM sodium phosphate, p<0.05
  luciferase expression compared with saline (words): significantly higher than saline
Mouse quadriceps muscle [4]; Example 4, day 7
  luciferase in muscle, fold over saline: 4.8 fold
Mouse quadriceps muscle [4]; Exp. #1 (highest)
  enhancement over saline: 7.3 fold
Mouse quadriceps muscle [4]; Exp. #9 (lowest)
  enhancement over saline: 2.5 fold
Mouse quadriceps muscle [4]; Table III-A
  lux: 481
Mouse quadriceps muscle [4]; Table III-A, listed as 50 mM Sodium Phosphate
  lux: 254
Mouse quadriceps muscle [4]; Table III-A, listed as 100 mM Sodium Phosphate
  lux: 270
Mouse quadriceps muscle [4]; Table III-A, listed as 150 mM Sodium Phosphate
  lux: 481
Mouse quadriceps muscle [4]; Table III-B, listed as 50 mM Sodium Phosphate
  lux: 254
Mouse quadriceps muscle [4]; Table III-B, listed as 100 mM Sodium Phosphate
  lux: 270
Mouse quadriceps muscle [4]; Table III-B, listed as 150 mM Sodium Phosphate
  lux: 481
Mouse quadriceps muscle [4]; [11]
  luciferase expression, fold over saline: 2.1 fold
Mouse quadriceps muscle [4]; [12]
  luciferase expression, fold over saline: 2.3 fold
Mouse quadriceps muscle [4]; [13]
  luciferase expression, fold over saline: 4.3 fold and 4 fold
Mouse quadriceps muscle [4]; all 9 experiments
  average enhancement over saline: 4.1 fold
Mouse quadriceps muscle [4]; Exp. #1
  ng lux/muscle: 362 ng lux/muscle
Mouse quadriceps muscle [4]; Exp. #9
  ng lux/muscle: 384 ng lux/muscle
Mouse quadriceps muscle [4]; [14]
  Fold Saline: 4.0 Fold
Mouse quadriceps muscle [4]; sodium phosphate below 40 mM or above 300 mM
  luciferase expression compared with saline (words): equal to or lower than those seen with saline
pH of the salt solutions; [15]
  pH: 7.2
pH of the salt solutions; 150 mM unless otherwise indicated, listed as 50 mM Sodium Phosphate
  pH: 7.2
pH of the salt solutions; 150 mM unless otherwise indicated, listed as 100 mM Sodium Phosphate
  pH: 7.2
pH of the salt solutions; 150 mM unless otherwise indicated, listed as 150 mM Sodium Phosphate
  pH: 7.2
[5]; listed as 50 mM Sodium Phosphate
  Osm: 83 mmol/kg
[5]; listed as 100 mM Sodium Phosphate
  Osm: 232 mmol/kg
[5]; listed as 150 mM Sodium Phosphate
  Osm: 308 mmol/kg
[5]; [11]
  osmolarity: 83 mmol/kg
[5]; [12]
  osmolarity: 270 mmol/kg
[5]; [13]
  osmolarity: 310 mmol/kg
Mouse quadriceps muscle [6]
  serum IFN-ω levels: 0.35 ng ml serum
Mouse quadriceps muscle [6]; day 7
  serum IFN-ω levels, fold over saline: 2.5 fold
Mouse quadriceps muscle [1]; 10 μg or 2.5 μg VR2901, four weeks
  hematocrit versus plasmid DNA in saline: higher hematocrit levels
Mouse quadriceps muscle [7]
  β-galactosidase-positive myofiber cells: 186+/−43 myofiber cells/muscle section
Mouse lung; listed as 2.5 mM sodium phosphate
  luciferase expression in lung: 5.2 ng lux/lung
Mouse lung; [13]
  luciferase expression in lung: 0.22 ng lux/lung
Mouse lung
  luciferase expression in lung compared with water: enhanced compared with water, but not as much as with 2.5 mM sodium phosphate
  luciferase expression in lung, fold compared with water: 5.5 fold
B16F10 tumor cells
  tumor volume: 955 mm^3
  survival versus blank DNA in saline: statistically significant survival difference
B16F10 tumor cells; VR4111 100 μg i.m., up to 22 days
  tumor growth versus blank DNA controls: lower rate of tumor growth
B16F10 tumor cells; to day 41, VR4111
  mice surviving: 4 out of 10
Influenza nucleoprotein [8]
  serum anti-NP antibody titers: enhanced serum anti-NP antibody titers compared with saline solution
Influenza nucleoprotein [9]
  anti-NP specific CTL activity: statistically similar
β-galactosidase; 10 μg VR1412, four weeks
  mice with anti-β-galactosidase antibody: none of the mice
β-galactosidase; 10 μg VR1412, two weeks
  mice with anti-β-galactosidase antibody: none of the mice
Rectus femoris muscle; group 3, 1 mg/ml DNA
  cats with elevated hematocrit: one cat
Rectus femoris muscle; groups 1 and 2, 5 and 3 mg/ml DNA
  cats with elevated hematocrit: No cats
Mouse quadriceps muscle [10]
  β-galactosidase in muscle: 9.8 ng/muscle
Mouse quadriceps muscle [10]; 10 μg VR1418, day 7, data not shown
  optimal molar concentration for β-galactosidase expression: 150 mM
Mouse quadriceps muscle [10]; day 7
  β-galactosidase in muscle, fold over saline: 3.3 fold
Mouse quadriceps muscle [2]; 50 μg VR1255 in 50 μl 150 mM sodium phosphate with added agents
  Average μg luciferase muscle: 0.37 µg

## [Cl-].[Na+] [Sodium Chloride, reference compound]
Mouse quadriceps muscle [4]; listed as 100 mM Sodium Chloride
  ng Lux per Muscle: 112 ng per Muscle
Mouse quadriceps muscle [4]; listed as 150 mM Sodium Chloride (saline)
  ng Lux per Muscle: 119 ng per Muscle
Mouse quadriceps muscle [4]; listed as 100 mM NaCl
  ng luciferase per muscle: 112 ng luciferase per muscle
Mouse quadriceps muscle [4]; listed as saline
  ng luciferase per muscle: 119 ng luciferase per muscle and 89 ng luciferase per muscle
Mouse quadriceps muscle [4]; salts at 150 mM
  ng Lux/Muscle: 119 ng/Muscle
Mouse quadriceps muscle [4]
  luciferase in muscle: 159 ng/muscle
  ng luciferase/muscle: 120 ng luciferase/muscle
Mouse quadriceps muscle [4]; Table III-A
  lux: 119
Mouse quadriceps muscle [4]; Table III-A, listed as 100 mM NaCl
  lux: 112
Mouse quadriceps muscle [4]; Table III-A, listed as 150 mM NaCl (Saline)
  lux: 119
Mouse quadriceps muscle [4]; Table III-B, listed as 100 mM NaCl
  lux: 112
Mouse quadriceps muscle [4]; Table III-B, listed as 150 mM NaCl (Saline)
  lux: 119
Mouse quadriceps muscle [4]; luciferase expression relative to saline, listed as 100 mM Sodium Chloride
  Fold Saline: 0.9 Fold
Mouse quadriceps muscle [4]; luciferase expression relative to saline, listed as 150 mM Sodium Chloride (saline)
  Fold Saline: 1.0 Fold
Mouse quadriceps muscle [4]; Exp. #1
  ng lux/muscle: 49 ng lux/muscle
Mouse quadriceps muscle [4]; Exp. #9
  ng lux/muscle: 156 ng lux/muscle
Mouse quadriceps muscle [4]; [14]
  Fold Saline: 1.0 Fold
pH of the salt solutions
  pH: 5.5
pH of the salt solutions; [15]
  pH: 5.5
[5]; listed as 100 mM NaCl
  Osm: 215 mmol/kg
[5]; listed as 150 mM NaCl (Saline)
  Osm: 310 mmol/kg
[5]; listed as saline
  osmolarity: 310 mmol/kg and 308 mmol/kg
Mouse quadriceps muscle [6]
  serum IFN-ω levels: 0.14 ng ml serum
Mouse quadriceps muscle [7]
  β-galactosidase-positive myofiber cells: 108+/−21 myofiber cells/muscle section
Mouse lung
  luciferase expression in lung: 0.14 ng lux/lung
B16F10 tumor cells
  tumor volume: 2069 mm^3
  survival versus blank DNA in saline: statistically significant survival difference
B16F10 tumor cells; to day 38, VR4111
  mice surviving: 2 out of 10
Mouse quadriceps muscle [10]
  β-galactosidase in muscle: 3.0 ng/muscle
